Laboratory results: ChEMBL document CHEMBL1201862, “PubChem BioAssay data set” (2004)
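Each compound was tested at five concentrations against cells in 96-well plates for 48 hours. GI50 marks 50% less growth.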 Activity calls are given as the source filed them. Rule as the data show it: active = GI50 up to about 1.1 µM and inactive = higher.

What was measured:
Test in all cases: inhibition of tumour cell growth, NCI panel, 48 h
SF-268 = tested on: SF-268
HCC 2998 = tested on: HCC 2998
HOP-62 = tested on: HOP-62
SR = tested on: SR
HT-29 = tested on: HT-29
Malme-3M = tested on: Malme-3M
UACC-62 = tested on: UACC-62
ACHN = tested on: ACHN
OVCAR-3 = tested on: OVCAR-3
DU-145 = tested on: DU-145
SK-OV-3 = tested on: SK-OV-3
HCT-116 = tested on: HCT-116
M14 = tested on: M14
U-251 = tested on: U-251
SNB-75 = tested on: SNB-75
HCT-15 = tested on: HCT-15
NCI-H522 = tested on: NCI-H522
LOX IMVI = tested on: LOX IMVI
BT-549 = tested on: BT-549
SK-MEL-28 = tested on: SK-MEL-28
RXF 393 = tested on: RXF 393
TK-10 = tested on: TK-10
OVCAR-5 = tested on: OVCAR-5
K562 = tested on: K562
MDA-MB-435 = tested on: MDA-MB-435
SW-620 = tested on: SW-620
SF-295 = tested on: SF-295
COLO 205 = tested on: COLO 205
SN12C = tested on: SN12C
NCI-H23 = tested on: NCI-H23
RPMI-8226 = tested on: RPMI-8226
OVCAR-4 = tested on: OVCAR-4
SNB-19 = tested on: SNB-19
UO-31 = tested on: UO-31
NCI-H226 = tested on: NCI-H226
EKVX = tested on: EKVX
MDA-N = tested on: MDA-N
HOP-92 = tested on: HOP-92
UACC-257 = tested on: UACC-257
IGROV-1 = tested on: IGROV-1
CCRF-CEM = tested on: CCRF-CEM
SF-539 = tested on: SF-539
MCF7 = tested on: MCF7
786-0 = tested on: 786-0
SK-MEL-2 = tested on: SK-MEL-2
MOLT-4 = tested on: MOLT-4
OVCAR-8 = tested on: OVCAR-8
A498 = tested on: A498
NCI/ADR-RES = tested on: NCI/ADR-RES
KM12 = tested on: KM12
NCI-H460 = tested on: NCI-H460
A549 = tested on: A549
CAKI-1 = tested on: CAKI-1
HL-60 = tested on: HL-60
SK-MEL-5 = tested on: SK-MEL-5
PC-3 = tested on: PC-3
MDA-MB-231 = tested on: MDA-MB-231
T47D = tested on: T47D

Measured: GI50

COCOc1ccc(C2(O)Oc3cc(OCOC)ccc3C2C)c(O)c1 (stereo not drawn)
10.5 µM: HCT-15
inactive: SF-268 15.9 µM | HCC 2998 13.5 µM | HOP-62 18 µM | SR 6.95 µM | HT-29 18.1 µM | Malme-3M 15.3 µM | UACC-62 12.9 µM | ACHN 12.9 µM | OVCAR-3 13.4 µM | DU-145 13.1 µM | SK-OV-3 17.5 µM | HCT-116 14.3 µM | M14 16.6 µM | U-251 15 µM | SNB-75 15.3 µM | NCI-H522 18.2 µM | LOX IMVI 16.9 µM | BT-549 14.2 µM | SK-MEL-28 17.2 µM | RXF 393 16.4 µM | TK-10 17.9 µM | OVCAR-5 17.1 µM | K562 10.7 µM | MDA-MB-435 14.9 µM | SW-620 18.4 µM | SF-295 14.5 µM | COLO 205 18.2 µM | SN12C 16.4 µM | NCI-H23 11.2 µM | RPMI-8226 11.7 µM | OVCAR-4 17.3 µM | SNB-19 16 µM | UO-31 11.6 µM | NCI-H226 14.8 µM | EKVX 14.6 µM | MDA-N 15.3 µM | HOP-92 16.2 µM | UACC-257 12.1 µM | IGROV-1 17.6 µM | CCRF-CEM 14.9 µM | SF-539 15.7 µM | MCF7 14.3 µM | 786-0 17.8 µM | SK-MEL-2 18.4 µM | MOLT-4 10.3 µM | OVCAR-8 16.8 µM | A498 15.5 µM | NCI/ADR-RES 13.5 µM | KM12 16.7 µM | NCI-H460 13.4 µM | A549 15.9 µM | CAKI-1 16.3 µM | HL-60 10.5 µM | SK-MEL-5 11 µM | PC-3 13.2 µM | MDA-MB-231 12.3 µM | T47D 12.3 µM
